From US11738099B2, “Molecular probes and methods of use” (CASE WESTERN RESERVE UNIVERSITY, priority 2014, dated 2023)
Blank lines part the entries; values can stand above or below the compound they belong to. Where no end group is shown, it is not given here.

Tests used:
[1] = tested on: LNCaP prostate tumor xenografts; test: T1-weighted MRI at 1 Tesla, LNCaP tumors (Example 3); type: in vivo, mouse; conditions: 0.1 mmol/kg i.v., up to 30 min
Experimental: (§1) Male athymic nude mice were purchased from Case Comprehensive Cancer Center (Cleveland, Ohio, USA) and housed in the Animal Core Facility at Case Western Reserve University. All animal experiments were performed in accordance with the animal protocol approved by the CWRU Institutional Animal Care and Use Committee. Athymic nude male mice were subcutaneously injected with 100 μL cell suspension (4×10^7 cells/mL) in matrigel matrix (Corning Bioscience, Corning, N.Y.) to initiate tumors. Mice with tumors of 5-8 mm in diameter were used for imaging studies.
MR images of tumor bearing mice were acquired on an Aspect M3 small animal MRI scanner (1 Tesla). Mice were placed on a holder with the temperature maintained at 37° C., with isoflurane/oxygen mixture supplied to the mice through a nose cone. A thin catheter filled with PBS was connected to a tail vein of the mice. After mice were placed in the coil, a pilot scan was performed to adjust mice to the proper location in the coil. […] Images were exported into DICOM data, which were then processed and analyzed using Matlab (Natick, Mass., USA). The contrast to-noise ratio of tumors in the images were calculated as the difference between tumor mean intensity minus muscle mean intensity, divided by the noise.

[2] = tested on: PC3 prostate tumor xenografts; test: T1-weighted MRI at 1 Tesla, PC3 tumors (Example 3); type: in vivo, mouse; conditions: 0.1 mmol/kg i.v., up to 30 min, 1 Tesla
Experimental: as §1
MR images of tumor bearing mice were acquired on an Aspect M3 small animal MRI scanner (1 Tesla). Mice were placed on a holder with the temperature maintained at 37° C., with isoflurane/oxygen mixture supplied to the mice through a nose cone. A thin catheter filled with PBS was connected to a tail vein of the mice. After mice were placed in the coil, a pilot scan was performed to adjust mice to the proper location in the coil. An axial T1 weighted sequence (TR=500 ms; TE=9 ms; Flip angle=90°; Field of view=3 cm×3 cm; Matrix size=128×128×8; slice thickness=2 mm; interslice distance=1 mm) was then used to acquire the images of the tumors before and 10 min, 20 min and 30 min after contrast injection. Images were exported into DICOM data, which were then processed and analyzed using Matlab (Natick, Mass., USA). The contrast to-noise ratio of tumors in the images were calculated as the difference between tumor mean intensity minus muscle mean intensity, divided by the noise.

[3] = tested on: PC3 prostate tumor xenografts; test: In vivo T1-weighted MRI at 7T, PC3 tumors; parameters: species or system mouse
Experimental: (§2) All MRI experiments were performed on a horizontal 7T Bruker scanner (Bruker Biospin Co., Billerica, Mass.). Imaging experiments were performed when the tumor size reached 5-8 mm in diameter. ZD2-Gd(HP-DO3A) was administered intravenously at the dose of 0.1 mmol/kg after acquiring pre-contrast images. Post-contrast images were obtained at 10 min interval up to 30 min. The axial slices of mouse at the tumor location were acquired using T1-weighted spin echo sequence with the following parameters: field of view (FOV): 3 cm; slice thickness: 1.2 mm; interslice distance: 1.2 mm; TR: 500 ms, TE: 8.1 ms; flip angle: 90°; average: 2; matrix size: 128×128. Contrast-to-noise ratio (CNR) at each time point was calculated by subtraction of the average signal intensity in the tumor and muscle, divided by the standard deviation of image noise. ProHance® (gadoteridol) was used as a control in the imaging experiments.

[4] = tested on: PC-3 human prostate cancer xenograft; test: MRI of PC-3 xenograft (Example 2); type: in vivo, mouse; conditions: 0.1 mmol-Gd/kg intravenous
Text: The same contrast agent also works for prostate cancer imaging. We then tested the effectiveness of targeting EDB-FN with the contrast agent for prostate cancer MRI in male nude mice bearing primary PC-3 human prostate cancer xenograft.

[5] = Relaxivity at 1.5T in water, 37° C.; type: physicochemical; conditions: listed as Gd(HP-DO3A)
Experimental: Relaxivity is an important parameter for an MR contrast agent. It reflects how the relaxation rate of the surrounding water proton changes as a function of concentration, and it is directly associated with the agent's contrast enhancing capability during imaging. The relaxivity of the 4 contrast agents was tested at 37° C. in water and compared to Gd(HP-DO3A), Gd-DOTA and ZD2-Gd(HP-DO3A) (FIG. 26). […] Compared to Gd(HP-DO3A), Gd-DOTA, the size increase of the targeted contrast agents due to the peptides and PEG spacer could result in an increase of τR,^[42, 43] thus leading to higher relaxivities.

[6] = r1 relaxivity by T1 mapping in PC3 tumor lysates; type: physicochemical
[7] = tested on: LNCaP prostate tumor xenografts; test: In vivo T1-weighted MRI at 7T, LNCaP tumors; parameters: species or system mouse
Experimental: as §2

PC3 tumors = test: In vivo MRI at 1.0 Tesla, PC3 tumor-bearing mice (Example 5); parameters: species or system mouse
Experimental: All MRI experiments were performed on an Aspect M3 compact MRI scanner (1.0 Telsa, Aspect Imaging. Israel). Imaging experiments were performed when the tumor size reached 5-8 mm in diameter. Each contrast agent was administered intravenously at a dose of 0.1 mmol/kg Gd^3+ after acquiring pre-contrast images. ProHance® (gadoteridol) was used as a control in the imaging experiments. Post-contrast images were obtained at 10 min intervals up to 30 min. Axial slices of the mouse at the tumor location were acquired using a T1-weighted spin echo sequence with the following parameters: TR=500 ms, TE=8.144 ms, slice thickness=1 mm, inter-slice gap=0.1 mm, field of view (FOV)=3 cm×3 cm. The total imaging time is 216 seconds. Contrast-to-noise ratio (CNR) at each time point was calculated by measuring the ratios of signal intensities in manually drawn regions of interest (ROIs) in tumor and muscle, and then normalizing to image noise. A 3D FLASH gradient echo sequence was used for whole-body coronal imaging. Imaging parameters were TR=17.362 ms, TE=6 ms, flip angle=15°, slice thickness=1.5 mm, FOV=[…]. The total imaging time is 226 seconds. Each of the 16 slices was acquired immediately after the acquisitions with the T1-weighted spin echo sequence.

TGFβ induced 4T1 cells = test: Binding of Cy5 probes to TGFβ induced 4T1 cells in vitro; type: cell-based
Experimental: As tumor cells produce EDB-FN to promote its migration, we further validated if Cy5 labeled l-ZD2 (l-ZD2-Cy5) can bind to TGFβ induced 4T1 cells in vitro. […] To explain this, we hypothesize that in this form of cell culture, no clot formation can take action to provide binding sites for CREKA-Cy5. To validate our hypothesis, we further produced a 3D culture system that mimics the “soil” of metastatic tumor. In the 3D culture system, 4T1 cells were cultured in a microenvironment containing TGFβ, collagen, and fibrin. […] In overall, these evidences point to the conclusion that the use of EDB-FN for targeting micrometastasis may be advantageous compared with Fibronectin-Fibrin complexes in that EDB-FN appears earlier than Fibronectin-Fibrin in the pre-metastatic niche.

4T1 metastatic tumors = test: Fluorescence detection of micrometastasis, breast cancer metastatic tumor model; type: in vivo, mouse; conditions: three hours after 10 nmol injection
Experimental: In order to construct a metastatic tumor model, 0.2×10^6 4T1 tumor cells undergone 5 days of TGFβ induction were injected through left ventricle of heart, resulting in the spread of tumor cells primarily in brain, lung, liver, lymph node, adrenal gland, chest, and bone marrow. Bioluminescent images of the mice at two weeks were used to monitor the growth of tumors. To assess the targeting capacity of l-ZD2-Cy5, brain and lung were harvested from the mice three hours after 10 nmol l-ZD2-Cy5 were injected. […] Normal brain and lung harvested from normal mice injected with l-ZD2-Cy5 were used as negative controls. Examination of bigger metastatic tumors in lymph nodes and adrenal gland, as shown in FIG. 8B further backed up the targeting efficiency of l-ZD2-Cy5.

EDB fragment = EDB fragment (Homo sapiens, UniProt P02751); test: Peptide ELISA of HRP-conjugated peptides on coated EDB; type: binding; conditions: HRP conjugates
Experimental: A linear version of ZD2 (CTVRTSADA) SEQ ID NO: 42 was synthesized so that sulfhydryl group on cysteine could be used for conjugation with maleimide-activated […] (Sigma-Aldrich). Conjugation was carried out as instructed in the manual. The product of conjugation, ZD2-HRP, was used for peptide ELISA assay after coating a 96-well plate with purified EDB. 0.5% BSA in PBS was used to block non-specific binding for later steps. 0.39 μM to 50 μM of ZD2-HRP was incubated with coated EDB for an hour followed by extensive washing with TBST (0.1%). ABTS substrate was added subsequently and allowed to react for 30 min before the absorbance of solution in each well were measured at 415 nm. Non-coated wells added with ABTS were used as blank.
Cyclic ZD2 peptide (CTVRTSADC) (SEQ ID NO: 10) was synthesized using standard solid phase peptide chemistry and was characterized by MALDI-TOF mass spectrometry (FIG. 1C). The peptide was then labeled with a fluorescence chromophore cyanine 5 (Cy5) through a short PEG linker (NH2—(CH2CH2O)—CH2CH2COOH) to give a peptide fluorescence probe ZD2-Cy5. The peptide was also conjugated to peroxidase (ZD2-HRP) and the binding affinity of the peptide to EDB fragment was determined using peptide ELISA assay.
(§3) Similarly, CERAK-HRP is synthesized as a control.

EDA = EDA (Homo sapiens, UniProt P02751); test: ELISA of l-ZD2-HRP on EDA; type: binding
Text: as §3

[8] = 0.1 mmol/kg i.v., up to 30 min, 7T

Sequence of EDA (P02751 1727-1814 limits assumed): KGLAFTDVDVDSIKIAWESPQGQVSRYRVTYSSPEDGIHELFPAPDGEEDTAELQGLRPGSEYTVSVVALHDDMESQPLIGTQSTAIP
Sequence of EDB fragment (P02751 1271-1359 limits assumed): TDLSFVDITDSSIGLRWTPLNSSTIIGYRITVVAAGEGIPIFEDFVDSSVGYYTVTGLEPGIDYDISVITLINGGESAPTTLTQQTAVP

Compound: CC(O)CN1CCN(CC(=O)[O-])CCN(CC(=O)[O-])CCN(CC(=O)[O-])CC1.[Gd+3] (centres unmarked) [ProHance, gadoteridol, reference compound]
signal enhancement in LNCaP tumors [1]: modest contrast enhancement | signal enhancement in PC3 tumors [2]: modest contrast enhancement | signal enhancement in PC3 tumors [3, 8]: modest contrast enhancement | CNR in PC3 tumors ([3]; 10-30 min post-injection): 7˜11 | tumor contrast enhancement [4]: little contrast enhancement | r1 [5]: 2.9 mM⁻¹ s⁻¹ | r1 relaxivity [6]: 3.17 mM⁻¹ s⁻¹ | signal enhancement in LNCaP tumors [7, 8]: modest contrast enhancement | CNR in LNCaP tumors ([7]; 10-30 min post-injection): 7˜10 | tumor signal enhancement, T1-weighted spin-echo (PC3 tumors; 0.1 mmol/kg i.v., at 10 minutes, remained at least 30 min): modest contrast enhancement | time of peak CNR in PC3 tumors (PC3 tumors; Gd-DOTA conjugates and ProHance, 0.1 mmol/kg): 10 min | CNR in PC3 tumors compared to the peptide targeted contrast agents (PC3 tumors; especially at 20 and 30 min): lower CNR

Compound: l-ZD2-Cy5: Cy5 labeled l-ZD2 (TVRTSAD; also: Cy5 labeled, site not given here)
binding to induced 4T1 cells (TGFβ induced 4T1 cells; cell culture): bound to induced 4T1 cells within 3 hours | binding in 3D culture of 4T1 cells (TGFβ induced 4T1 cells; microenvironment containing TGFβ, collagen, and fibrin): accumulated in the cell periphery starting from day 1 | binding to micrometastases on brain and lung (4T1 metastatic tumors): clearly outlined the micrometastases

binding to EDA (EDA): No binding
Compound: l-ZD2-HRP: NH2-TVRTSADC-COOH conjugated via cysteine thiol to maleimide activated horseradish peroxidase
binding to EDB protein (EDB fragment): comparable to cyclic ZD2 with a slight increase in affinity
